Test results from ChEMBL document CHEMBL1124001, “Synthesis and antileukemic activity of bis[[(carbamoyl)oxy]methyl]- substituted pyrrolo[2,1-a]isoquinolines, pyrrolo[1,2-a]quinolines, pyrrolo[2,1-a]isobenzazepines, and pyrrolo[1,2-a]benzazepines” (J Med Chem, 1988).

Tests used:
Mus musculus [1] = experiment: Body weight change of test animals to that of control was determined after injection at 50 mg/kg intraperitoneally in CD2F1 mice; format: functional; details: route intraperitoneal
Mus musculus [2] = experiment: Net log cell kill was determined after injecting 12.5 mg/kg intraperitoneally in CD2F1 mice; format: functional; details: route intraperitoneal
Mus musculus [3] = experiment: Toxicity day survivors was determined by the ratio of animals survived to that of test animals at 6.25 mg/kg intraperitoneally in CD2F1 mice; 6/6; format: organism-based; set-up: dose 6.25 mg/kg, route intraperitoneal; details: in vivo, ip
Mus musculus [4] = experiment: Toxicity day survivors was determined by the ratio of animals survived to that of test animals at 50 mg/kg intraperitoneally in CD2F1 mice; 3/6; format: organism-based; set-up: dose 50 mg/kg, route intraperitoneal; details: in vivo, ip
Mus musculus [5] = experiment: Ratio of treated to that of untreated tumor-bearing control animals at 6.25 mg/kg intraperitoneally in CD2F1 mice was determined; format: functional; details: route intraperitoneal
Mus musculus [6] = experiment: Body weight change of test animals to that of control was determined after injection at 3.12 mg/kg intraperitoneally in CD2F1 mice; format: functional; details: route intraperitoneal
Mus musculus [7] = experiment: Net log cell kill was determined after injecting 3.12 mg/kg intraperitoneally in CD2F1 mice; format: functional; details: route intraperitoneal
Mus musculus [8] = experiment: Toxicity day survivors was determined by the ratio of animals survived to that of test animals at 12.5 mg/kg intraperitoneally in CD2F1 mice; 6/6; format: organism-based; set-up: dose 12.5 mg/kg, route intraperitoneal; details: in vivo, ip
Mus musculus [9] = experiment: Toxicity day survivors was determined by the ratio of animals survived to that of test animals at 100 mg/kg intraperitoneally in CD2F1 mice; 0/6; format: organism-based; set-up: dose 100 mg/kg, route intraperitoneal; details: in vivo, ip
Mus musculus [10] = experiment: Body weight change of test animals to that of control was determined after injection at 12.5 mg/kg intraperitoneally in CD2F1 mice; format: functional; details: route intraperitoneal
Mus musculus [11] = experiment: Net log cell kill was determined after injecting 6.25 mg/kg intraperitoneally in CD2F1 mice; format: functional; details: route intraperitoneal
Mus musculus [12] = experiment: Ratio of treated to that of untreated tumor-bearing control animals at 3.12 mg/kg intraperitoneally in CD2F1 mice was determined; format: functional; details: route intraperitoneal
Mus musculus [13] = experiment: Ratio of treated to that of untreated tumor-bearing control animals at 1.56 mg/kg intraperitoneally in CD2F1 mice was determined; format: functional; details: route intraperitoneal
Mus musculus [14] = experiment: Body weight change of test animals to that of control was determined after injection at 25 mg/kg intraperitoneally in CD2F1 mice; format: functional; details: route intraperitoneal
Mus musculus [15] = experiment: Toxicity day survivors was determined by the ratio of animals survived to that of test animals at 1.56 mg/kg intraperitoneally in CD2F1 mice; 6/6; format: organism-based; set-up: dose 1.56 mg/kg, route intraperitoneal; details: in vivo, ip
Mus musculus [16] = experiment: Net log cell kill was determined after injecting 1.56 mg/kg intraperitoneally in CD2F1 mice; format: functional; details: route intraperitoneal
Mus musculus [17] = experiment: Toxicity day survivors was determined by the ratio of animals survived to that of test animals at 25 mg/kg intraperitoneally in CD2F1 mice; 4/6; format: organism-based; set-up: dose 25 mg/kg, route intraperitoneal; details: in vivo, ip
Mus musculus [18] = experiment: Body weight change of test animals to that of control was determined after injection at 6.25 mg/kg intraperitoneally in CD2F1 mice; format: functional; details: route intraperitoneal
Mus musculus [19] = experiment: Ratio of treated to that of untreated tumor-bearing control animals at 12.5 mg/kg intraperitoneally in CD2F1 mice was determined; format: functional; details: route intraperitoneal
Mus musculus [20] = experiment: Toxicity day survivors was determined by the ratio of animals survived to that of test animals at 3.12 mg/kg intraperitoneally in CD2F1 mice; 6/6; format: organism-based; set-up: dose 3.12 mg/kg, route intraperitoneal; details: in vivo, ip
Mus musculus [21] = experiment: Body weight change of test animals to that of control was determined after injection at 1.56 mg/kg intraperitoneally in CD2F1 mice; format: functional; details: route intraperitoneal
Mus musculus [22] = experiment: Toxicity day survivors was determined by the ratio of animals survived to that of test animals at 100 mg/kg intraperitoneally in CD2F1 mice; 2/6; format: organism-based; set-up: dose 100 mg/kg, route intraperitoneal; details: in vivo, ip
Mus musculus [23] = experiment: Ratio of treated to that of untreated tumor-bearing control animals at 25 mg/kg intraperitoneally in CD2F1 mice was determined; format: functional; details: route intraperitoneal
Mus musculus [24] = experiment: Toxicity day survivors was determined by the ratio of animals survived to that of test animals at 50 mg/kg intraperitoneally in CD2F1 mice; 6/6; format: organism-based; set-up: dose 50 mg/kg, route intraperitoneal; details: in vivo, ip
Mus musculus [25] = experiment: Net log cell kill was determined after injecting 50 mg/kg intraperitoneally in CD2F1 mice; format: functional; details: route intraperitoneal
Mus musculus [26] = experiment: Body weight change of test animals to that of control was determined after injection at 100 mg/kg intraperitoneally in CD2F1 mice; format: functional; details: route intraperitoneal
Mus musculus [27] = experiment: Ratio of treated to that of untreated tumor-bearing control animals at 50 mg/kg intraperitoneally in CD2F1 mice was determined; format: functional; details: route intraperitoneal
Mus musculus [28] = experiment: Net log cell kill was determined after injecting 25 mg/kg intraperitoneally in CD2F1 mice; format: functional; details: route intraperitoneal
Mus musculus [29] = experiment: Toxicity day survivors was determined by the ratio of animals survived to that of test animals at 25 mg/kg intraperitoneally in CD2F1 mice; 6/6; format: organism-based; set-up: dose 25 mg/kg, route intraperitoneal; details: in vivo, ip

SMILES | T-C (Mus musculus [1]) [g] | KE (Mus musculus [2]) | TDS (Mus musculus [3]) | T/C (Mus musculus [5]) [%] | TDS (Mus musculus [8]) | T-C (Mus musculus [10]) [g] | KE (Mus musculus [11]) | T-C (Mus musculus [14]) [g] | T-C (Mus musculus [18]) [g] | T/C (Mus musculus [19]) [%] | other results
CC(C)NC(=O)OCc1cn2c(c1COC(=O)NC(C)C)-c1ccccc1CC2 | -3.5 | 3.84 | 6 | 157 | 6 | -3.1 | 1.6 | -4.2 | -0.8 | 188 | TDS (Mus musculus [4]): 3; T-C (Mus musculus [6]): -0.5 g; KE (Mus musculus [7]): 0; TDS (Mus musculus [9]): 0; T/C (Mus musculus [12]): 136%; T/C (Mus musculus [13]): 130%; TDS (Mus musculus [15]): 6; KE (Mus musculus [16]): -0.38; TDS (Mus musculus [17]): 4; TDS (Mus musculus [20]): 6; T-C (Mus musculus [21]): -0.3 g
Cc1c(COC(=O)NC(C)C)c(COC(=O)NC(C)C)c2n1CCc1ccccc1-2 | -4 | 1.6 | 6 | 153 | 6 | -2.6 | 1.28 | -4.2 | -0.9 | 157 | TDS (Mus musculus [22]): 2; T/C (Mus musculus [23]): 166%; TDS (Mus musculus [24]): 6; KE (Mus musculus [25]): 2.82; T-C (Mus musculus [26]): -3.8 g; T/C (Mus musculus [27]): 174%; KE (Mus musculus [28]): 2.24; TDS (Mus musculus [29]): 6
